Data as given in patent publication US8822517B2, “Arylosulfonamides for the treatment of CNS diseases” (Adamed SP. Z O.O., priority 2010, dated 2014).

Legend:
[1] = molecular target: T1, adrenergic α2C receptor (Homo sapiens, UniProt P18825); assay: Binding assay α2C (h), [3H]RX 821002, CHO cells; parameters: expressed in transfected cells; host or cells: CHO cells; settings: read-out: α2C [%]
T1 sequence (P18825 1-462): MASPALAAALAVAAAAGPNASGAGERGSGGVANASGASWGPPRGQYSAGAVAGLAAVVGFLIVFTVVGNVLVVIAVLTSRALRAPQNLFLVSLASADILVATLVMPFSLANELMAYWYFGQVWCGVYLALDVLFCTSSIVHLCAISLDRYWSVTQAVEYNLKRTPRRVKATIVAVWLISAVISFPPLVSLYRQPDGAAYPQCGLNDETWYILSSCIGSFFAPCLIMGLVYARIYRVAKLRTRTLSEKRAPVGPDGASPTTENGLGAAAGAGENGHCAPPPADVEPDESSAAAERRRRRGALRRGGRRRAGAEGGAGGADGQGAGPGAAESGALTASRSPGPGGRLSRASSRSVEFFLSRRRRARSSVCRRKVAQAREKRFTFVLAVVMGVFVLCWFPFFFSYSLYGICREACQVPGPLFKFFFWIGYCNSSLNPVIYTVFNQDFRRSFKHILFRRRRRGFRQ
Outline: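 Compounds tested at a single 1×10^−6 M concentration against the listed radioligands; bound label counted by scintillation, with non-specific binding defined by excess unlabelled ligand and subtracted from total.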

[2] = molecular target: hERG potassium channels (Homo sapiens, UniProt Q12809); assay: hERG potassium channel block, electrophysiology (IonWorks Quattro), CHO cells; settings: % block of hERG current, cloned hERG channels in CHO cells, IonWorks Quattro
hERG potassium channels, sequence (Q12809 whole entry): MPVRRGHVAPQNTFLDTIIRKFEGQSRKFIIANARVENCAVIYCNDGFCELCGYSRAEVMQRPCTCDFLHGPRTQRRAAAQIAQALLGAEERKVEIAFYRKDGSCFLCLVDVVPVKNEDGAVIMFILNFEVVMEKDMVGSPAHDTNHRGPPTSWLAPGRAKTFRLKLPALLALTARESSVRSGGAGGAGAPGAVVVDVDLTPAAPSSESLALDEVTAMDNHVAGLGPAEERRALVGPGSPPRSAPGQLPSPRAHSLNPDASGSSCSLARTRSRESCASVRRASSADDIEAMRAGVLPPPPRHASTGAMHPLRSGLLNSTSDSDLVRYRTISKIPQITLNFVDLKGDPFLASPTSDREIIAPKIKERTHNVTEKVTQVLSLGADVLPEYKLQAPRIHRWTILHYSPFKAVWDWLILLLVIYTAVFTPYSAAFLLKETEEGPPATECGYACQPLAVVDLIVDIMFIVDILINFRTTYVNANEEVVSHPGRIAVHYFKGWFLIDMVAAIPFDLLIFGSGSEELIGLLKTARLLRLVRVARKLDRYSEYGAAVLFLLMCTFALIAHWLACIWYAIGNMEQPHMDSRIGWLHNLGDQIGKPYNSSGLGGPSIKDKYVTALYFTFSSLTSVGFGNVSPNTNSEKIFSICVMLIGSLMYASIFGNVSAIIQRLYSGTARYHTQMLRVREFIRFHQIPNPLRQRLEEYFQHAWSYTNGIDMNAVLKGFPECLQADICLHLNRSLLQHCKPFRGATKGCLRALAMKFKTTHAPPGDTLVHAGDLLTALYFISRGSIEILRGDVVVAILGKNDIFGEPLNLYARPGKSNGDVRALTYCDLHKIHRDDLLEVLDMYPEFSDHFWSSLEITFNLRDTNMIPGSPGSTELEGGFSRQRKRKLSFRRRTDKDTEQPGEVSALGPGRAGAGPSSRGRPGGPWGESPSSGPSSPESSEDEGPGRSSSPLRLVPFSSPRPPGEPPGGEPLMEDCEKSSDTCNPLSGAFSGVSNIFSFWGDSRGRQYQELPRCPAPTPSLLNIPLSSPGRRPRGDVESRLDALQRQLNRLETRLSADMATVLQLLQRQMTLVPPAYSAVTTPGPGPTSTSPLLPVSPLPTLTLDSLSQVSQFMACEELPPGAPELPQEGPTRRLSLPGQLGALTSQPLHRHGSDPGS
Method: Ability to block hERG potassium channels was determined using the electrophysiological method and cloned hERG potassium channels (KCNH2 gene, expressed in CHO cells) as biological material. The effects were evaluated using IonWorks™ Quattro system (MDS-AT).
hERG current was elicited using a pulse pattern with fixed amplitudes (conditioning prepulse: −80 mV for 25 ms; test pulse: +40 mV for 80 ms) from a holding potential of 0 mV. hERG current was measured as a difference between the peak current at 1 ms after the test step to +40 mV and the steady-state current at the end of the step to +40 mV.
Data acquisition and analyses was performed using the IonWorks Quattro™ system operation software (version 2.0.2; Molecular Devices Corporation, Union City, Calif.). Data were corrected for leak current.

Structure (SMILES) | inhibition at 1 µM [1] [%] | hERG [%] [2] [%]
O=c1[nH]c2ccc(S(=O)(=O)NCCCN3CCN(c4nsc5ccccc45)CC3)cc2o1 [Compound 8, N-(3-(4-(1,2-Benzothiazol-3-yl)piperazin-1-yl)propyl)-2-oxo-3H-1,3-benzoxazole-6-sulphonamide] | 93 | –
O=S(=O)(NCCCCN1CCN(c2noc3ccccc23)CC1)c1cccc2ccccc12 [Compound 13, N-(4-(4-(1,2-Benzoxazol-3-yl)piperazin-1-yl)butyl)naphthalene-1-sulphonamide] | 99 | –
O=S(=O)(NCCCCN1CCN(c2noc3ccccc23)CC1)c1ccc2ccccc2c1 [Compound 14, N-(4-(4-(1,2-Benzoxazol-3-yl)piperazin-1-yl)butyl)naphthalene-2-sulphonamide] | 100 | −1.4
O=c1[nH]c2ccc(S(=O)(=O)NCCCCN3CCN(c4noc5ccccc45)CC3)cc2o1 [Compound 16, N-(4-(4-(1,2-Benzoxazol-3-yl)piperazin-1-yl)butyl)-2-oxo-3H-1,3-benzoxazole-6-sulphonamide] | 101 | –
O=S(=O)(NCCCCN1CCN(c2cccc3[nH]ccc23)CC1)c1ccc2ccccc2c1 [Compound 26, N-{4-[4-(1H-Indol-4-yl)piperazin-1-yl]butyl}naphthalene-2-sulphonamide] | 100 | –
O=S(=O)(NCCCCN1CCN(c2cccc3[nH]ccc23)CC1)c1ccccc1 [Compound 27, N-{4-[4-(1H-Indol-4-yl)piperazin-1-yl]butyl}benzenesulphonamide] | 100 | –
O=S(=O)(NCCCCN1CCN(c2cccc3[nH]ccc23)CC1)c1cccc(F)c1 [Compound 28, 3-Fluoro-N-{4-[4-(1H-indol-4-yl)piperazin-1-yl]butyl}benzenesulphonamide] | 92 | –
O=S(=O)(NCCCCN1CCN(c2cccc3[nH]ccc23)CC1)c1cnc2ccccn12 [Compound 30, N-{4-[4-(1H-Indol-4-yl)piperazin-1-yl]butyl}-imidazo[1,2-a]pyridine-3-sulphonamide] | 99 | −3
O=S(=O)(NCCCCN1CCN(c2cccc3[nH]ccc23)CC1)c1cc2ccccc2s1 [Compound 33, N-{4-[4-(1H-Indol-4-yl)piperazin-1-yl]butyl}-1-benzothiophene-2-sulphonamide] | 100 | –
O=S(=O)(NCCCCN1CCN(c2nsc3ccccc23)CC1)c1ccc2cc(Cl)ccc2c1 [Compound 61, N-[4-[4-(1,2-Benzothiazol-3-yl)piperazin-1-yl]butyl]-6-chloro-naphthalene-2-sulphonamide] | 101 | 12
O=S(=O)(NCCCCN1CCN(c2noc3ccccc23)CC1)c1ccc2cc(Cl)ccc2c1 [Compound 79, N-[4-[4-(1,2-Benzoxazol-3-yl)piperazin-1-yl]butyl]-6-chloro-naphthalene-2-sulphonamide] | 106 | –
Cc1c(S(=O)(=O)NCCCCN2CCN(c3noc4ccccc34)CC2)sc2ccc(F)cc12 [Compound 81, N-[4-[4-(1,2-Benzoxazol-3-yl)piperazin-1-yl]butyl]-5-fluoro-3-methylbenzothiophene-2-sulphonamide] | 106 | –
O=S(=O)(NCCCCN1CCN(c2noc3ccccc23)CC1)c1c[nH]c2ncccc12 [Compound 89, N-[4-[4-(1,2-Benzoxazol-3-yl)piperazin-1-yl]butyl]-1H-pyrrolo[2,3-b]pyridine-3-sulphonamide] | 98 | –
O=S(=O)(NCCCN1CCC(c2noc3cc(F)ccc23)CC1)c1ccc2cc(Cl)ccc2c1 [Compound 98, 6-Chloro-N-[3-[4-(6-fluoro-1,2-benzoxazol-3-yl)piperidin-1-yl]propyl]naphthalene-2-sulphonamide] | 108 | –
Cc1c(S(=O)(=O)NCCCCN2CCC(c3noc4cc(F)ccc34)CC2)sc2ccc(F)cc12 [Compound 101, 5-Fluoro-N-[4-[4-(6-fluoro-1,2-benzoxazol-3-yl)piperidin-1-yl]butyl]-3-methylbenzothiophene-2-sulphonamide] | 106 | 14
Cc1c(S(=O)(=O)NCCCN2CCC(c3noc4cc(F)ccc34)CC2)sc2ccc(F)cc12 [Compound 102, 5-Fluoro-N-[3-[4-(6-fluoro-1,2-benzoxazol-3-yl)piperidin-1-yl]propyl]-3-methylbenzothiophene-2-sulphonamide] | 101 | –
O=S(=O)(NCCCCN1CCN(c2cccc3[nH]ccc23)CC1)c1cccc(Cl)c1 [Compound 113, N-[4-[4-(1H-Indol-4-yl)piperazin-1-yl]butyl]-3-chlorobenzenesulphonamide] | 99 | 16

Structure (SMILES) | inhibition at 1 µM [1] [%] | hERG [%] [2] [%]
O=S(=O)(NCCCCN1CCN(c2nsc3ccccc23)CC1)c1cc2ccccc2s1 [Compound 239, N-[4-[4-(1,2-Benzothiazol-3-yl)piperazin-1-yl]butyl]benzothiophene-2-sulphonamide] | 105 | –
O=S(=O)(NCCCCN1CCN(c2nsc3ccccc23)CC1)c1csc2ccccc12 [Compound 240, N-[4-[4-(1,2-Benzothiazol-3-yl)piperazin-1-yl]butyl]benzothiophene-3-sulphonamide] | 100 | –
O=S(=O)(NCCCCN1CCN(c2noc3ccccc23)CC1)c1ccc(-c2ccccc2)cc1 [Compound 283, N-[4-[4-(1,2-Benzoxazol-3-yl)piperazin-1-yl]butyl]-4-phenylbenzenesulphonamide] | 109 | –
O=S(=O)(NCCCCN1CCN(c2noc3ccccc23)CC1)c1cc2ccc(Cl)cc2s1 [Compound 288, N-[4-[4-(1,2-Benzoxazol-3-yl)piperazin-1-yl]butyl]-6-chlorobenzothiophene-2-sulphonamide] | 109 | –
O=S(=O)(NCCCCN1CCC(c2noc3cc(F)ccc23)CC1)c1ccc(Br)cc1 [Compound 298, 4-Bromo-N-[4-[4-(6-fluoro-1,2-benzoxazol-3-yl)piperidin-1-yl]butyl]benzenesulphonamide] | 98 | –
O=S(=O)(NCCCCN1CCC(c2noc3cc(F)ccc23)CC1)c1cc2ccccc2s1 [Compound 312, N-[4-[4-(6-Fluoro-1,2-benzoxazol-3-yl)piperidin-1-yl]butyl]benzothiophene-2-sulphonamide] | 92 | –
O=S(=O)(NCCCCN1CCC(c2noc3cc(F)ccc23)CC1)c1csc2ccccc12 [Compound 313, N-[4-[4-(6-Fluoro-1,2-benzoxazol-3-yl)piperidin-1-yl]butyl]benzothiophene-3-sulphonamide] | 100 | –
O=S(=O)(NCCCCN1CCC(c2noc3cc(F)ccc23)CC1)c1cc2ccc(Cl)cc2s1 [Compound 314, 6-Chloro-N-[4-[4-(6-fluoro-1,2-benzoxazol-3-yl)piperidin-1-yl]butyl]benzothiophene-2-sulphonamide] | 108 | –
O=S(=O)(NCCCN1CCC(c2noc3cc(F)ccc23)CC1)c1ccc(F)c(Cl)c1 [Compound 331, 3-Chloro-4-fluoro-N-[3-[4-(6-fluoro-1,2-benzoxazol-3-yl)piperidin-1-yl]propyl]benzenesulphonamide] | 104 | 32
N#Cc1cccc(S(=O)(=O)NCCCN2CCC(c3noc4cc(F)ccc34)CC2)c1 [Compound 338, 3-cyano-N-[3-[4-(6-fluoro-1,2-benzoxazol-3-yl)piperidin-1-yl]propyl]benzenesulphonamide] | 104 | 40.5
O=S(=O)(NCCCN1CCC(c2noc3cc(F)ccc23)CC1)c1ccc2cn[nH]c2c1 [Compound 352, N-[3-[4-(6-Fluoro-1,2-benzoxazol-3-yl)piperidin-1-yl]propyl]-1H-indazole-6-sulphonamide] | 100 | –
O=S(=O)(NCCCCN1CCN(c2cccc3[nH]ccc23)CC1)c1ccc2cc(Cl)ccc2c1 [Compound 358, 6-Chloro-N-[4-[4-(1H-indol-4-yl)piperazin-1-yl]butyl]naphthalene-2-sulphonamide] | 101 | 0
O=S(=O)(NCCCCN1CCN(c2cccc3[nH]ccc23)CC1)c1ccc(F)cc1 [Compound 359, 4-Fluoro-N-[4-[4-(1H-indol-4-yl)piperazin-1-yl]butyl]benzenesulphonamide] | 99 | 9
O=S(=O)(NCCCCN1CCN(c2cccc3[nH]ccc23)CC1)c1cc2ccc(Cl)cc2s1 [Compound 363, 6-Chloro-N-[4-[4-(1H-indol-4-yl)piperazin-1-yl]butyl]benzothiophene-2-sulphonamide] | 101 | 0
O=c1[nH]c2cccc(N3CCN(CCCNS(=O)(=O)c4cccc5ccccc45)CC3)c2[nH]1 [Compound 423, N-[3-[4-(2-oxo-1,3-dihydrobenzimidazol-4-yl)piperazin-1-yl]propyl]naphthalene-1-sulphonamide] | 69 | –
O=c1[nH]c2cccc(N3CCN(CCCNS(=O)(=O)c4ccc5ccccc5c4)CC3)c2[nH]1 [Compound 424, N-[3-[4-(2-oxo-1,3-dihydrobenzimidazol-4-yl)piperazin-1-yl]propyl]naphthalene-2-sulphonamide] | 67 | –
